Experiments:
[1] = Clearance in human liver microsomes assessed per mg protein for 5 mins in presence of NADPH by LC-MS/MS analysis; assay type: ADME, Microsome; details: read-out: CLH
Cytochrome P450 [2] = test: Drug metabolism in human liver microsomes assessed as Km for cytochrome p450-mediated 2-(4-(2-((1H-Benzo[d]imidazol-2-yl)thio)ethyl)piperazin-1-yl)-N-(6-methyl-4-(methylsulfinyl)-2-(methylthio)pyridin-3-yl)acetamide formation; assay type: ADME
Cytochrome P450 [3] = test: Drug metabolism in human liver microsomes assessed as Km for cytochrome p450-mediated 2-(4-(2-((1H-Benzo[d]imidazol-2-yl)thio)ethyl)piperazin-1-yl)-N-(6-methyl-2-(methyl-sulfinyl)-4-(methylthio)pyridin-3-yl)acetamide formation; assay type: ADME
Cytochrome P450 [4] = test: Drug metabolism in human liver microsomes assessed as Km for cytochrome p450-mediated 2-(4-(2-((1H-Benzo[d]imidazol-2-yl)sulfinyl)ethyl)piperazin-1-yl)-N-(6-methyl-2,4-bis(methylthio)pyridin-3-yl)acetamide formation; assay type: ADME
Cytochrome P450 [5] = test: Drug metabolism in human liver microsomes assessed as Km for cytochrome p450-mediated 2-(4-(2-((5-Hydroxy-1H-benzo[d]imidazol-2-yl)thio)ethyl)piperazin-1-yl)-N-(6-methyl-2,4-bis(methylthio)pyridin-3-yl)acetamide formation; assay type: ADME
Cytochrome P450 [6] = test: Drug metabolism in human liver microsomes assessed as Vmax for cytochrome p450-mediated 2-(4-(2-((1H-Benzo[d]imidazol-2-yl)thio)ethyl)piperazin-1-yl)-N-(6-methyl-4-(methylsulfinyl)-2-(methylthio)pyridin-3-yl)acetamide formation; assay type: ADME
Cytochrome P450 [7] = test: Drug metabolism in human liver microsomes assessed as Vmax for cytochrome p450-mediated 2-(4-(2-((1H-Benzo[d]imidazol-2-yl)thio)ethyl)piperazin-1-yl)-N-(6-methyl-2-(methyl-sulfinyl)-4-(methylthio)pyridin-3-yl)acetamide formation; assay type: ADME
Cytochrome P450 [8] = test: Drug metabolism in human liver microsomes assessed as Vmax for cytochrome p450-mediated 2-(4-(2-((1H-Benzo[d]imidazol-2-yl)sulfinyl)ethyl)piperazin-1-yl)-N-(6-methyl-2,4-bis(methylthio)pyridin-3-yl)acetamide formation; assay type: ADME
Cytochrome P450 [9] = test: Drug metabolism in human liver microsomes assessed as Vmax for cytochrome p450-mediated 2-(4-(2-((5-Hydroxy-1H-benzo[d]imidazol-2-yl)thio)ethyl)piperazin-1-yl)-N-(6-methyl-2,4-bis(methylthio)pyridin-3-yl)acetamide formation; assay type: ADME
[10] = Clearance in human liver microsomes assessed as 2-(4-(2-((1H-Benzo[d]imidazol-2-yl)thio)ethyl)piperazin-1-yl)-N-(6-methyl-4-(methylsulfinyl)-2-(methylthio)pyridin-3-yl)acetamide level per mg protein; assay type: ADME, Microsome
[11] = Clearance in human liver microsomes assessed as 2-(4-(2-((1H-Benzo[d]imidazol-2-yl)thio)ethyl)piperazin-1-yl)-N-(6-methyl-2-(methyl-sulfinyl)-4-(methylthio)pyridin-3-yl)acetamide level per mg protein; assay type: ADME, Microsome
[12] = Clearance in human liver microsomes assessed as 2-(4-(2-((1H-Benzo[d]imidazol-2-yl)sulfinyl)ethyl)piperazin-1-yl)-N-(6-methyl-2,4-bis(methylthio)pyridin-3-yl)acetamide level per mg protein; assay type: ADME, Microsome
[13] = Clearance in human liver microsomes assessed as 2-(4-(2-((5-Hydroxy-1H-benzo[d]imidazol-2-yl)thio)ethyl)piperazin-1-yl)-N-(6-methyl-2,4-bis(methylthio)pyridin-3-yl)acetamide level per mg protein; assay type: ADME, Microsome
Cytochrome P450 3A4 [14] = target: T1, Cytochrome P450 3A4 (Homo sapiens, UniProt P08684); test: Drug metabolism in human liver microsomes assessed as CYP3A4-mediated 2-(4-(2-((1H-Benzo[d]imidazol-2-yl)thio)ethyl)piperazin-1-yl)-N-(6-methyl-4-(methylsulfinyl)-2-(methylthio)pyridin-3-yl)acetamide formation; assay type: ADME
Cytochrome P450 3A4 [15] = target: T1, Cytochrome P450 3A4; test: Drug metabolism in human liver microsomes assessed as CYP3A4-mediated 2-(4-(2-((1H-Benzo[d]imidazol-2-yl)thio)ethyl)piperazin-1-yl)-N-(6-methyl-2-(methyl-sulfinyl)-4-(methylthio)pyridin-3-yl)acetamide formation; assay type: ADME
Cytochrome P450 3A4 [16] = target: T1, Cytochrome P450 3A4; test: Drug metabolism in human liver microsomes assessed as CYP3A4-mediated 2-(4-(2-((1H-Benzo[d]imidazol-2-yl)sulfinyl)ethyl)piperazin-1-yl)-N-(6-methyl-2,4-bis(methylthio)pyridin-3-yl)acetamide formation; assay type: ADME
Cytochrome P450 3A4 [17] = target: T1, Cytochrome P450 3A4; test: Drug metabolism in human liver microsomes assessed as CYP3A4-mediated 2-(4-(2-((5-Hydroxy-1H-benzo[d]imidazol-2-yl)thio)ethyl)piperazin-1-yl)-N-(6-methyl-2,4-bis(methylthio)pyridin-3-yl)acetamide formation; assay type: ADME
Cytochrome P450 3A5 = Cytochrome P450 3A5 (Homo sapiens, UniProt P20815); test: Drug metabolism in human liver microsomes assessed as CYP3A5-mediated 2-(4-(2-((1H-Benzo[d]imidazol-2-yl)thio)ethyl)piperazin-1-yl)-N-(6-methyl-4-(methylsulfinyl)-2-(methylthio)pyridin-3-yl)acetamide formation; assay type: ADME
Sequence of Cytochrome P450 3A5 (P20815 whole entry): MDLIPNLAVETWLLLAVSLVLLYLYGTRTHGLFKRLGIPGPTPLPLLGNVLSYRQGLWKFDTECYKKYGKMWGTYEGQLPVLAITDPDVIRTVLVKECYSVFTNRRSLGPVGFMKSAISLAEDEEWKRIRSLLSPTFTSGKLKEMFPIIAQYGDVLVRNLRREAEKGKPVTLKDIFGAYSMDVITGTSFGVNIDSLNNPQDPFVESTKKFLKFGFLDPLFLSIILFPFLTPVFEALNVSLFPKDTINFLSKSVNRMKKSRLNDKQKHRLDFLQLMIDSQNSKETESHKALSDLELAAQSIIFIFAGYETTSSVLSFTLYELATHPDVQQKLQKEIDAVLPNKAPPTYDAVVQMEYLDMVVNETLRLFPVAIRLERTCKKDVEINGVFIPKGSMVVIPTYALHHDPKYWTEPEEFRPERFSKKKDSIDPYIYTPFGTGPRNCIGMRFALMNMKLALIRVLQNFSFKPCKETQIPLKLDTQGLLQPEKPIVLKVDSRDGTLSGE

T1 sequence (P08684 whole entry): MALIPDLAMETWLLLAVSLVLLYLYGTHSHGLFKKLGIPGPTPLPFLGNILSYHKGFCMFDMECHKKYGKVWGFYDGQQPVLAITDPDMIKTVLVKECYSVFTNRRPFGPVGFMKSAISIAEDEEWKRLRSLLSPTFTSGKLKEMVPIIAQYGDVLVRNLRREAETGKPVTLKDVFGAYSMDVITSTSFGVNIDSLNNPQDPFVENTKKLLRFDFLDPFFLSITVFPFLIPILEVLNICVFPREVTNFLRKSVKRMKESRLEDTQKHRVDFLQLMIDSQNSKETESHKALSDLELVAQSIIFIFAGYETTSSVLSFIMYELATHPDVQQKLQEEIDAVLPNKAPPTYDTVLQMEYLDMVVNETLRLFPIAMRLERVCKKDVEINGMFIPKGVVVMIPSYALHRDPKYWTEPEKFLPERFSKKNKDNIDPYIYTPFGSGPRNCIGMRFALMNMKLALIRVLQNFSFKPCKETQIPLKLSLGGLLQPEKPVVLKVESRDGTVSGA

Which results are given for `CSc1cc(C)nc(SC)c1NC(=O)CN1CCN(CCSc2nc3ccccc3[nH]2)CC1.Cl`?
microsomal CLint [1]: 720 µL/min/mg; Km (Cytochrome P450 [2]): 1.3 µM; Km (Cytochrome P450 [3]): 4.3 µM; Km (Cytochrome P450 [4]): 2.6 µM; Km (Cytochrome P450 [5]): 2 µM; Vmax (Cytochrome P450 [6]): 1773 pmol/min/mg; Vmax (Cytochrome P450 [7]): 363 pmol/min/mg; Vmax (Cytochrome P450 [8]): 558 pmol/min/mg; Vmax (Cytochrome P450 [9]): 343 pmol/min/mg; CLH [10]: 1353 µL/min; CLH [11]: 125 µL/min; CLH [12]: 219 µL/min; CLH [13]: 168 µL/min; Drug metabolism (Cytochrome P450 3A4 [14]): Metabolite_Detected; Drug metabolism (Cytochrome P450 3A4 [15]): Metabolite_Detected; Drug metabolism (Cytochrome P450 3A4 [16]): Metabolite_Detected; Drug metabolism (Cytochrome P450 3A4 [17]): Metabolite_Detected; Drug metabolism (Cytochrome P450 3A5): Metabolite_Detected

Source: ChEMBL document CHEMBL4725230, “Syntheses and pharmacokinetic evaluations of four metabolites of 2-(4-(2-((1H-benzo[d]imidazol-2-yl)thio)ethyl)piperazin-1-yl)-N-(6-methyl-2,4-bis-(methylthio)pyridin-3-yl)acetamide hydrochloride [K-604], an acyl-CoA:cholesterol O-acyltransferase-1 inhibitor” (Bioorg Med Chem, 2020)
